Results on 16 molecules are retold here after PubChem BioAssay (NCI).

What all share (test): NCI tumour cell line growth inhibition, 48 h
In experiment [1] the test system is PC-3 prostate.
The test system of experiment [2] is SK-MEL-28 melanoma.
Experiment [3] concerns MALME-3M melanoma.
Experiment [4] has as its system HT29 colon.
In experiment [5] the test system is 786-0 renal.
In experiment [6] the test system is U251 CNS.
Experiment [7] relates to LOX IMVI melanoma.
Experiment [8] concerns HCT-15 colon.
For experiment [9], the system named is SNB-19 CNS.
For experiment [10], the system named is NCI-H460 lung.

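Cultured in 96-well plates, cells were exposed to test compound for 48 hours across five concentrations. At the GI50, growth is halved. Definition used: TGI = concentration required for complete inhibition of growth.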

`CCOC(=O)c1cn(C)c2c(OC)c3ccccc3c(OC)c2c1=O`: the GI50 in [1] was 29000 nM; in experiment [2] it was 56 µM; in [3], 8950 nM; in [4], 64.3 µM; in experiment [5], more than 100000 nM; in [6], 20.3 µM. Further, the GI50 is 20700 nM in experiment [7], 29.6 µM in experiment [8], 36.6 µM in experiment [9] and 32100 nM in experiment [10]. Also, the TGI is more than 100 µM in experiment [1]; more than 100 µM in [2]; 30.3 µM in experiment [3]; more than 100 µM in experiment [4]; more than 100 µM in [5]; 55.3 µM in [6]. Moreover, the TGI in experiment [7] is 58.6 µM; in experiment [8], more than 100 µM; in experiment [9] it was more than 100 µM; in [10], more than 100 µM.
Take `CC(=O)C1(C(=O)C(=[N+]=[N-])S(=O)(=O)c2ccccc2)CC1`: the TGI in [1], in [2], in experiment [3], in experiment [4], in [5] and in experiment [6] was more than 100 µM in each case. The TGI in experiment [7], in experiment [8], in experiment [9] and in experiment [10] was more than 100 µM in each case.
`C/C(=N\NC(=S)N1CCC1)c1ccccn1`: the TGI in [1] is more than 100 µM; in experiment [2], more than 56 µM; in experiment [3], 7.65 µM; in experiment [4] it was 34.5 µM; in experiment [5], more than 52.4 µM; in experiment [6], more than 82.6 µM. Also, the TGI was 15.9 µM in [7], 45.4 µM in experiment [8], more than 100 µM in experiment [9] and 6.33 µM in experiment [10]. In addition, the GI50 was 10.1 nM in [3]; 0.00471 µM in experiment [4]; 55.5 nM in [5]; 0.00725 µM in experiment [6]; 5.25 nM in experiment [7]; 0.00336 µM in experiment [8]. In experiment [10], the GI50 was 70 nM.
Regarding `CN(C)CCNC(=O)Nc1ccc(N(C)c2ccnc(Nc3ccc(CS(C)(=O)=O)cc3)n2)cc1`, the GI50 was more than 25000 nM in experiment [1]; more than 25 µM in experiment [2]; more than 25000 nM in [3]; more than 25 µM in [4]; more than 25000 nM in experiment [5]; more than 25 µM in experiment [6]. For the same molecule, the GI50 is more than 25000 nM in experiment [7], more than 25 µM in experiment [8], more than 25 µM in [9] and more than 25000 nM in experiment [10]. Further, the TGI in [1], in experiment [2], in experiment [3], in experiment [4], in experiment [5] and in experiment [6] was more than 25 µM throughout. Further, the TGI in [7], in experiment [8], in experiment [9] and in [10] was more than 25 µM in each case.
Regarding `OCC1OC(OC2(CO)OC(CO)C(O)C2O)C(O)C(O)C1O` (configuration not stated), the GI50 in experiment [1] was more than 100000 nM; in experiment [2], more than 100 µM; in [3], more than 100000 nM; in [4], more than 100 µM; in experiment [5], more than 100000 nM; in experiment [6], more than 100 µM. Moreover, the GI50 in experiment [7] was more than 100000 nM; in experiment [8], more than 100 µM; in experiment [9] it was more than 100 µM; in [10], more than 100000 nM. Besides, the TGI in [1], in [2], in experiment [3], in [4], in [5] and in [6] was more than 100 µM throughout. For the same molecule, the TGI in experiment [7], in experiment [8], in experiment [9] and in experiment [10] was more than 100 µM each time.
With `OCCNc1nc2ccccc2c2[nH]c3ccccc3c12`, the GI50 is 1100 nM in experiment [1]; 1.04 µM in experiment [2]; 487 nM in experiment [3]; 0.321 µM in experiment [4]; 407 nM in experiment [5]; 0.661 µM in [6]. The GI50 is 419 nM in experiment [7], 0.349 µM in experiment [8], 0.345 µM in [9] and 305 nM in experiment [10]. In addition, the TGI in [1] worked out at 16.9 µM; in experiment [2], 2.55 µM; in experiment [3] it was 1.91 µM; in [4], 2.71 µM; in experiment [5] it was 1.92 µM; in experiment [6] it was 4.31 µM. The TGI in [7] came out at 1.8 µM; in experiment [8] it was 3.59 µM; in experiment [9], 3.57 µM; in experiment [10], 1.24 µM.
Take `Nc1nc(Cl)c2ncn(Cc3ccc(C45CC6CC(CC(C6)C4)C5)c(OCc4cc(F)c(F)cc4F)c3)c2n1`: the GI50 was 1000 nM in [1]; 8.12 µM in [2]; 2470 nM in experiment [3]; 3.45 µM in experiment [4]; 1850 nM in [5]; 3.04 µM in [6]. Besides, the GI50 in [7] is 1880 nM; in experiment [8], 3.57 µM; in [9], 6.48 µM; in [10], 2390 nM. In addition, the TGI turned out to be 3.98 µM in experiment [1]; 26.3 µM in experiment [2]; 8.62 µM in [3]; 22.7 µM in experiment [4]; 4.93 µM in [5]; 16.3 µM in experiment [6]. For the same molecule, the TGI stood at 8.64 µM in [7], 14.1 µM in [8], 46.6 µM in [9] and 5.89 µM in experiment [10].
For the molecule `C#COc1cccc(Nc2ncnc3cc(NC(=O)[C@@H](C)Cl)ccc23)c1`, the GI50 in experiment [1] was 11700 nM; in experiment [2], 14 µM; in [3], 20100 nM; in experiment [4] it was 2.41 µM; in experiment [5] it was 19300 nM; in experiment [6], 7.29 µM. Also, the GI50 was 4880 nM in experiment [7], 3.98 µM in experiment [8], 19.2 µM in experiment [9] and 7630 nM in experiment [10]. Besides, the TGI in [1], in experiment [2], in experiment [3], in [4], in experiment [5] and in [6] was more than 62.5 µM in each case. In addition, the TGI in [7], in experiment [8], in experiment [9] and in [10] was more than 62.5 µM in each case.
On to `Cn1cc(-c2ccc3ncc(-c4ccc(CC(=O)Nc5cc(C(C)(C)C)nn5C)cc4)cc3c2)cn1`, for which the GI50 was 961 nM in [1]; 3.57 µM in experiment [2]; 721 nM in [3]; 3.99 µM in experiment [4]; 1280 nM in experiment [5]; 2.11 µM in experiment [6]. Moreover, the GI50 in experiment [7] was 1230 nM; in experiment [8] it was 0.793 µM; in [9], 3.35 µM; in [10], 786 nM. The TGI in experiment [1], in [2], in [3], in [4], in [5] and in [6] was more than 20 µM in each case. The TGI in [7], in experiment [8], in experiment [9] and in experiment [10] was more than 20 µM throughout.
Regarding `O=C(Nc1nc2ccc(S(=O)(=O)Nc3ccc(C4(C(F)(F)F)CC4)cc3)cc2[nH]1)c1cnccn1`, the GI50 in experiment [1] is 1060 nM; in experiment [2], 4.58 µM; in experiment [3] it was 1660 nM; in [4] it was 1.2 µM; in experiment [5] it was 2770 nM; in experiment [6], 4.74 µM. Further, the GI50 is 1620 nM in experiment [7], 0.557 µM in [8], 4.24 µM in experiment [9] and 1070 nM in experiment [10]. Further, the TGI in experiment [1] came to 2.47 µM; in [2], 19.2 µM; in [3], 15.5 µM; in [4], 14.4 µM; in experiment [5] it was 12.6 µM; in experiment [6], 22.5 µM. Further, the TGI came to 20.1 µM in experiment [7], 14.3 µM in experiment [8], 22 µM in experiment [9] and 12.2 µM in experiment [10].
As for `CC(=O)Nc1cccc(C#Cc2cncnc2Nc2ccc(OCc3cccc(F)c3)c(Cl)c2)c1`, the GI50 in experiment [1] is 8490 nM; in [2], 17.1 µM; in experiment [3], 12500 nM; in experiment [4], 7.89 µM; in experiment [5], 7660 nM; in experiment [6], 11.8 µM. The GI50 was 8120 nM in [7], 7.41 µM in experiment [8], 24.6 µM in experiment [9] and 8940 nM in experiment [10]. In addition, the TGI in experiment [1], in experiment [2], in experiment [3], in [4], in [5] and in experiment [6] was more than 25 µM each time. The TGI in experiment [7], in [8], in experiment [9] and in [10] was more than 25 µM in each case.
With `Nc1nc(-c2ccccc2)c(CC(=O)O)s1`, the TGI in experiment [1], in [2], in experiment [3], in experiment [4], in [5] and in [6] was more than 100 µM in each case. Further, the TGI in [7], in experiment [8], in experiment [9] and in experiment [10] was more than 100 µM in each case.
On to `OCc1ccc(-c2ccc(-c3ccc(CO)o3)o2)o1`, for which the GI50 was more than 100000 nM in experiment [1]; more than 100 µM in experiment [2]; 8220 nM in [3]; more than 85.9 µM in experiment [4]; 35300 nM in experiment [5]; 39.1 µM in [6]. In addition, the GI50 is more than 100000 nM in experiment [7], more than 100 µM in experiment [8], more than 90.8 µM in [9] and more than 100000 nM in experiment [10]. Besides, the TGI in experiment [1] is more than 100 µM; in [2] it was more than 100 µM; in [3] it was 69.6 µM; in experiment [4] it was more than 100 µM; in experiment [5], more than 100 µM; in experiment [6] it was more than 100 µM. Moreover, the TGI in experiment [7], in [8], in experiment [9] and in experiment [10] was more than 100 µM throughout.
With `CCOC(=O)[C@@H](C)C[C@H](Cc1ccccc1)NC(=O)c1csc([C@@H](C[C@H](C(C)C)N(C)C(=O)CNC(=O)[C@H]2CCCCN2C)OC(C)=O)n1`, the GI50 was 508 nM in [1]; 1.52 µM in experiment [2]; 601 nM in experiment [3]; 0.467 µM in experiment [4]; 1370 nM in [5]; 1 µM in experiment [6]. Moreover, the GI50 in experiment [7] was 2140 nM; in experiment [8], 1.49 µM; in experiment [9] it was 0.758 µM; in [10] it was 612 nM. In addition, the TGI in experiment [1], in [2], in experiment [3], in [4], in experiment [5] and in experiment [6] was more than 14.3 µM throughout. Also, the TGI in experiment [7] is more than 14.3 µM; in [8], more than 14.3 µM; in experiment [9], more than 14.3 µM; in [10], more than 6.66 µM.
Consider `CCCC(O)[C@@]1(CC)CC(C)C(O)(C2(C)C[C@H](C)[C@@H](C(CC)C(=O)C(C)[C@@H](O)[C@H](C)C3OC(O)(C(CC)C(=O)O)[C@@H](C)C(O)C3CC)O2)O1` (some centres not stated), for which the TGI in [1] was found to be 1.76 µM; in [2] it was 1.69 µM; in [3], 0.392 µM; in [4] it was 2.09 µM; in experiment [5], 5.07 µM; in experiment [6], 1.82 µM. Moreover, the TGI in experiment [7] came to 1.57 µM; in experiment [8] it was 7.03 µM; in experiment [9], 3.15 µM; in [10], 2.14 µM.
Take `COc1ccc(N(CC(=O)O)N=O)cc1`: the TGI in experiment [1], in experiment [2], in [3], in experiment [4], in experiment [5] and in [6] was more than 100 µM each time. Also, the TGI in experiment [7], in [8], in experiment [9] and in experiment [10] was more than 100 µM in each case.
